According to paper PMC9118553, “In Vivo Bioconcentration of 10 Anionic Surfactants in Rainbow Trout Explained by In Vitro Data on Partitioning and S9 Clearance” (Environmental Science & Technology, 2022):
Values joined by “and” are separate entries in the source; they are usually repeats but may differ in a detail not shown here. Identical values can stand only once. Like-named read-outs stand apart in the source and are kept apart here. Marks after values point to notes of the source that are not given here.

How the values were obtained:
[1] = test system: rainbow trout; test: In vivo bioconcentration experiment with a mixture of anionic surfactants, flow-through aquaria, 10 °C, pH 7.8; details: for Log BCF: determined with measured concentrations in water; for Concentration in fish: individual fish; for diffusion coefficient (D) in the epithelial membrane of the gills: in vivo; for BCF (kinetic): kinetic BCF from measured concentrations in water;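 as to Uptake rate constant kU: L kg-1 h-1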
Description: The bioconcentration of a mixture of 10 anionic surfactants was measured in rainbow trout in water at pH 7.8. […] The experiment was conducted in flow-through aquaria with juvenile rainbow trout at 10 °C. Ethical approval for the experiments was obtained from Stockholms […] (decision 9967-2017). The fish, fish housing, fish handling, and procedure for introducing the mixture of […] chemicals were very similar to our previous study with cationic surfactants;[5] details are provided in Text S1. The experiment consisted of a 4-day exposure phase and a 7-day depuration phase. […] Water samples were collected and fish were sacrificed according to the schedule in Table S4. The water samples were collected just prior to the daily removal of feces from the aquarium. Triplicate samples were taken at each time point. […] The water/methanol mixture was analyzed using liquid chromatography-mass spectrometry (LC-MS)/MS as described below for fish. At each fish sampling, five fish were sacrificed. Following stunning and severance of the spinal cord, the whole fish were placed in a polyethylene bag, weighed, and immediately frozen at -20 °C. The weight of the individual fish at sacrifice was 24.0 ± 5.6 g. Three of the five fish from each time point were prioritized for analysis based on proximity to the median fish weight. Each fish was […] homogenized with an Ultra-turrax dispersing device. […] This mixture was homogenized in a bullet blender for 5 min and then placed in an ultrasound bath at 45 °C for 15 min. Following centrifugation for 15 min@3200 RCF, the supernatant was decanted and the extraction was repeated. The extracts were combined. For instrumental analysis, 5 μL of the fish extract or 60 μL of the water/methanol mixture (water samples) was separated on an Acquity UPLC BEH C18 column fitted with a BEH C18 pre-column and analyzed on a TSQ Quantiva triple quadrupole mass spectrometer. The mobile phase was methanol (10 mM ammonium acetate) and Milli-Q-filtered water (10 mM ammonium acetate) (see Table S5 for the liquid chromatography program). To avoid detergent blank peaks originating from cleaning mobile phase bottles, the methanol was prepared directly in the solvent bottle as delivered and Milli-Q was tapped into an empty methanol bottle. Furthermore, a guard column was fitted between the mobile phase and the autosampler to prevent background contamination from disturbing the analysis. All analytes were quantified against the BEHP internal standard, as it gave better reproducibility. […] The central goal of the analysis was to estimate kU and kT as well as the BCF (=kU/kT) from measurements of surfactant concentration in fish and water samples collected at different time points of the experiment. For the fish, only those time points were included for which CF(measured) was above the limit of quantitation (LOQ) in all three fish (data below the LOQ will have a positive bias; including them would result in a negative bias in kT). In this analysis, there exist two sources of uncertainty: first, uncertainty in the actual concentration in water CW at the time of sample collection and second, variability in the concentration in fish around the (expected) surfactant concentrations in fish assumed to follow model (1). We therefore set up a model in which we considered uncertainty in both water and fish measurements simultaneously by assuming a parametric model for the surfactant concentration in the water over time (either linear or quadratic) and accounted for the uncertainty in the corresponding parameters of the water model during the estimation of kU and kT. This was done in a joint Bayesian model that we estimated via Hamiltonian Monte Carlo. […]

[2] = cited from earlier work; for log DMW, membrane-water distribution ratio: marked * = measured, used for IVIVE, same values as Table 3
[3] = from measured concentrations in water, Bayesian estimate, 95% credible interval in brackets
[4] = 95% credible interval in brackets
[5] = measured concentrations in water, simpler estimation method (Text S3), 95% confidence intervals in brackets
[6] = determined using nominal concentrations in water

Log BCF [1]	SMILES	Concentration in fish ([1]; elimination phase, 97 h)	Concentration in fish ([1]; elimination phase, 98 h)	Concentration in fish ([1]; elimination phase, 100 h)	Concentration in fish ([1]; elimination phase, 103 h)	Concentration in fish ([1]; elimination phase, 120 h)	Concentration in fish ([1]; elimination phase, 128 h)	Concentration in fish ([1]; elimination phase, 144 h)	Concentration in fish ([1]; elimination phase, 168 h)	Concentration in fish ([1]; elimination phase, 192 h)	Concentration in fish ([1]; elimination phase, 264 h)	Concentration in fish ([1]; exposure phase, 1 h)	Concentration in fish ([1]; exposure phase, 2 h)	Concentration in fish ([1]; exposure phase, 3 h)	Concentration in fish ([1]; exposure phase, 4 h)	Concentration in fish ([1]; exposure phase, 6 h)	Concentration in fish ([1]; exposure phase, 24 h)	Concentration in fish ([1]; exposure phase, 48 h)	Concentration in fish ([1]; exposure phase, 72 h)	Concentration in fish ([1]; exposure phase, 96 h)	other results
3.14 L kg-1 ww	CCCCCCCCCCCCCCCCS(=O)(=O)O [C16SO3, hexadecylsulfonate]	4206 ng g-1 ww and 4275 ng g-1 ww and 4280 ng g-1 ww	3644 ng g-1 ww and 3202 ng g-1 ww and 3035 ng g-1 ww	4355 ng g-1 ww and 3469 ng g-1 ww and 3603 ng g-1 ww	3251 ng g-1 ww and 4192 ng g-1 ww and 3692 ng g-1 ww	2630 ng g-1 ww and 4641 ng g-1 ww and 2805 ng g-1 ww	3635 ng g-1 ww and 2712 ng g-1 ww and 2831 ng g-1 ww	2859 ng g-1 ww and 2503 ng g-1 ww and 3401 ng g-1 ww	2804 ng g-1 ww and 2276 ng g-1 ww and 2244 ng g-1 ww	1669 ng g-1 ww and 1852 ng g-1 ww and 2440 ng g-1 ww	1420 ng g-1 ww and 2150 ng g-1 ww and 967 ng g-1 ww	440 ng g-1 ww and 319 ng g-1 ww and 614 ng g-1 ww	300 ng g-1 ww and 304 ng g-1 ww and 147 ng g-1 ww	347 ng g-1 ww and 392 ng g-1 ww and 451 ng g-1 ww	510 ng g-1 ww and 1310 ng g-1 ww and 2283 ng g-1 ww	557 ng g-1 ww and 678 ng g-1 ww and 649 ng g-1 ww	2045 ng g-1 ww and 1698 ng g-1 ww and 1479 ng g-1 ww	3941 ng g-1 ww and 3596 ng g-1 ww and 1879 ng g-1 ww	1532 ng g-1 ww and 3782 ng g-1 ww and 3167 ng g-1 ww	3775 ng g-1 ww and 5248 ng g-1 ww and 3695 ng g-1 ww	Uptake rate constant kU [1]: 6.3 L kg^–1 h^–1; Elimination rate constant kT [1, 3]: 0.0047 (0.0026–0.0062) h^–1; Uptake rate constant kU [1, 3]: 6.3 (5.3–7.4) L kg^–1 ww h^–1; diffusion coefficient (D) in the epithelial membrane of the gills [1]: 1.6 × 10^–8 m h^–1; BCF (kinetic) [1, 4]: 1370 (1070–2200) L kg^–1 ww; BCF [1, 5]: 1480 (14) L kg-1 ww; Elimination rate constant kT [1, 5]: 0.0073 (10) h-1; Uptake rate constant kU [1, 5]: 10.8 (10) L kg-1 ww h-1; log DMW, membrane-water distribution ratio [2]: 6.19
-1.38 L kg-1 ww	CCCCCCCCCCS(=O)(=O)O [C10SO3, decylsulfonate]	3.0 ng g-1 ww and 1.5 ng g-1 ww and 1.3 ng g-1 ww	1.5 ng g-1 ww and 1.0 ng g-1 ww and 1.4 ng g-1 ww	5.1 ng g-1 ww and 1.4 ng g-1 ww (2×)	0.3 ng g-1 ww (2×) and 0.6 ng g-1 ww	0.50 ng g-1 ww and 0.76 ng g-1 ww and 0.61 ng g-1 ww	0.62 ng g-1 ww and 0.49 ng g-1 ww and 0.99 ng g-1 ww	0.63 ng g-1 ww and 0.33 ng g-1 ww and 5.2 ng g-1 ww	0.49 ng g-1 ww and 0.55 ng g-1 ww and 0.16 ng g-1 ww	0.14 ng g-1 ww and 0.15 ng g-1 ww and 0.22 ng g-1 ww	2.0 ng g-1 ww and 1.9 ng g-1 ww and 0.2 ng g-1 ww	1.1 ng g-1 ww and 2.1 ng g-1 ww and 1.4 ng g-1 ww	1.1 ng g-1 ww (2×) and 7.5 ng g-1 ww	1.5 ng g-1 ww and 1.6 ng g-1 ww and 5.5 ng g-1 ww	2.4 ng g-1 ww and 3.5 ng g-1 ww and 6.5 ng g-1 ww	2.1 ng g-1 ww and 2.0 ng g-1 ww and 1.4 ng g-1 ww	42.8 ng g-1 ww and 1.4 ng g-1 ww (2×)	2.4 ng g-1 ww and 3.6 ng g-1 ww and 1.7 ng g-1 ww	3.6 ng g-1 ww and 2.1 ng g-1 ww and 3.0 ng g-1 ww	3.0 ng g-1 ww (2×) and 2.8 ng g-1 ww	BCF [1, 6]: 0.046 L kg-1 ww; BCF (steady-state) ([1]; steady-state BCF, plateau 6-96 h, measured concentrations in water, 95% confidence interval in brackets): 0.042 ^d (0.034–0.050) L kg^–1 ww; log DMW, membrane-water distribution ratio [2]: 3.01; log DMLW ([2]; measurement from Droge): 3.01 ^e L kg^–1
1.21 L kg-1 ww	CCCCCCCCCCc1ccc(S(=O)(=O)O)cc1 [C10-1-LAS, 1-n-(p-sulfophenyl)decane]	78 ng g-1 ww (2×) and 103 ng g-1 ww	73 ng g-1 ww and 72 ng g-1 ww and 55 ng g-1 ww	74 ng g-1 ww and 57 ng g-1 ww and 60 ng g-1 ww	47 ng g-1 ww and 58 ng g-1 ww and 51 ng g-1 ww	24 ng g-1 ww and 27 ng g-1 ww and 17.2 ng g-1 ww	14.0 ng g-1 ww and 17.0 ng g-1 ww and 18.2 ng g-1 ww	7.6 ng g-1 ww and 6.8 ng g-1 ww and 10.2 ng g-1 ww	4.7 ng g-1 ww and 3.5 ng g-1 ww (2×)	1.08 ng g-1 ww and 1.14 ng g-1 ww and 1.40 ng g-1 ww	1.0 ng g-1 ww and 0.7 ng g-1 ww and 0.31 ng g-1 ww	8.9 ng g-1 ww and 6.9 ng g-1 ww and 16.6 ng g-1 ww	11.3 ng g-1 ww and 10.6 ng g-1 ww and 7.2 ng g-1 ww	16.5 ng g-1 ww and 19.7 ng g-1 ww and 16.6 ng g-1 ww	26 ng g-1 ww and 32 ng g-1 ww and 75 ng g-1 ww	38 ng g-1 ww (2×) and 27 ng g-1 ww	86 ng g-1 ww and 91 ng g-1 ww and 64 ng g-1 ww	94 ng g-1 ww and 98 ng g-1 ww and 84 ng g-1 ww	112 ng g-1 ww and 87 ng g-1 ww and 70 ng g-1 ww	113 ng g-1 ww and 104 ng g-1 ww and 110 ng g-1 ww	BCF [1, 6]: 15.0 L kg-1 ww; Elimination rate constant kT [1, 6]: 0.049 h⁻¹; Uptake rate constant kU [1, 6]: 0.74 L/kg/h; Elimination rate constant kT [1, 3]: 0.047 (0.044–0.050) h^–1; Uptake rate constant kU [1, 3]: 0.77 (0.67–0.87) L kg^–1 ww h^–1; diffusion coefficient (D) in the epithelial membrane of the gills [1]: 2.4 × 10^–8 m h^–1; BCF (kinetic) [1, 4]: 16.3 (14.6–18.2) L kg^–1 ww; BCF [1, 5]: 14.7 (8) L kg-1 ww; Elimination rate constant kT [1, 5]: 0.046 (3) h-1; Uptake rate constant kU [1, 5]: 0.67 (8) L kg-1 ww h-1; BCF ([1]; own values): 16.3 L kg^–1
